Data taken from patent EP4467141A1, “PYRAZOLO-QUINOLINES AS SELECTIVE INHIBITORS OF GENOTOXIC STRESS-INDUCED IKK/NF- KB PATHWAYS FOR CANCER THERAPY” (Max-Delbrück-Centrum für Molekulare Medizin in der …, priority 2023, dated 2024).

Tests used:
Assay in all cases: Kinase panel study
Type in all cases: biochemical
Settings in all cases: read-out: Percentage of inhibition; for inhibition at 1 µM: 1000nM; for inhibition at 10 µM: 10000nM
[1] = target: T1, ACVR1B (ALK4) (Homo sapiens, UniProt P36896)
T1 construct: purchased Thermo Fisher Scientific
T1 sequence (P36896 24-505): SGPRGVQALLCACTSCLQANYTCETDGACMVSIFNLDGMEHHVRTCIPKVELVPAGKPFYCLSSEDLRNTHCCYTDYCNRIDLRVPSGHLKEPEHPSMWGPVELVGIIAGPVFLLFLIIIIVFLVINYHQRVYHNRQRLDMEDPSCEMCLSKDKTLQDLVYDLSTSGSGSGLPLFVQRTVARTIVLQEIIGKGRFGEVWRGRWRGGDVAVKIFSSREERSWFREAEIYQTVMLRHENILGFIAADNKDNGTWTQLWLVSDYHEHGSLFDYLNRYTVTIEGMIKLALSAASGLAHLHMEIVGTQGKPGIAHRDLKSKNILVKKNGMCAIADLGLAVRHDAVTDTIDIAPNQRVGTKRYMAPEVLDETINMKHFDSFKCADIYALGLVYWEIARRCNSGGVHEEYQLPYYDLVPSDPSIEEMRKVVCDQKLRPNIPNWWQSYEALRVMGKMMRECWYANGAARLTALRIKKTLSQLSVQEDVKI
In short: (§1)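 Single-point inhibition data at 10 µM or 1 µM compound are shown. They were generated in ZLyte- or Adapta-format biochemical assays performed externally under standard conditions.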

[2] = target: T2, AMPK (A2/B2/G3) (Homo sapiens, UniProt P54646)
T2 construct: purchased Thermo Fisher Scientific
In short: as §1

[3] = target: T3, CDK7/cyclin H/MNAT1 (Homo sapiens, UniProt P50613)
T3 construct: purchased Thermo Fisher Scientific
In short: as §1

[4] = target: T4, FGFR3 V555M (Homo sapiens, UniProt P22607, V555M)
T4 construct: purchased Thermo Fisher Scientific
In short: as §1

[5] = target: T5, FGR (Homo sapiens, UniProt P09769)
T5 construct: purchased Thermo Fisher Scientific
In short: as §1

[6] = target: T6, MAP4K5 (KHS1) (Homo sapiens, UniProt Q9Y4K4)
T6 construct: purchased Thermo Fisher Scientific
In short: as §1

[7] = target: T7, NIM1K (Homo sapiens, UniProt Q8IY84)
T7 construct: purchased Thermo Fisher Scientific
In short: as §1

[8] = target: T8, PIK3C3 (hVPS34) (Homo sapiens, UniProt Q8NEB9)
T8 construct: purchased Thermo Fisher Scientific
In short: as §1

[9] = target: T9, PRKCE (PKC epsilon) (Homo sapiens, UniProt Q02156)
T9 construct: purchased Thermo Fisher Scientific
T9 sequence (Q02156 1-737): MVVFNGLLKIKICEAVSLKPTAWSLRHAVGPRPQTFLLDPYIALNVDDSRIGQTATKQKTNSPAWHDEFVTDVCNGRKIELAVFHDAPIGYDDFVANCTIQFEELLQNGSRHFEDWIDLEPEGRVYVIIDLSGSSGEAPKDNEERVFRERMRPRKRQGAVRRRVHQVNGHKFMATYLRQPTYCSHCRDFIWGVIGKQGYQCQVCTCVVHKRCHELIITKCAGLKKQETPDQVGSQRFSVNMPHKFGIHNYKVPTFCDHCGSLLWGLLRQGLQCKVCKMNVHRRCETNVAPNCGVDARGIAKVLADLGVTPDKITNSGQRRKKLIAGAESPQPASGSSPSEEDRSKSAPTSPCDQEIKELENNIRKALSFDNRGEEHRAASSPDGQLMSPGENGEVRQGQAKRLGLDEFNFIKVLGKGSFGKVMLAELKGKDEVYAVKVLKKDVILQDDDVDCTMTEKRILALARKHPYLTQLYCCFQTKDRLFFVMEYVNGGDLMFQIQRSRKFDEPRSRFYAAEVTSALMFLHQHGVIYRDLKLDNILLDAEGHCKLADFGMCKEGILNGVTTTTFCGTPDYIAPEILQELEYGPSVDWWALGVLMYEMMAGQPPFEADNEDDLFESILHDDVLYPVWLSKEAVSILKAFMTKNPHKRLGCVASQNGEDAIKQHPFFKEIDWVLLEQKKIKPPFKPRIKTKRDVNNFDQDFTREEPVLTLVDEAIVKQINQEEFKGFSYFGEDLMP
In short: as §1

[10] = target: T10, RET (Homo sapiens, UniProt P07949)
T10 construct: purchased Thermo Fisher Scientific
In short: as §1

[11] = target: T11, RPS6KB1 (p70S6K) (Homo sapiens, UniProt P23443)
T11 construct: purchased Thermo Fisher Scientific
In short: as §1

[12] = target: T12, SRPK1 (Homo sapiens, UniProt Q96SB4)
T12 construct: purchased Thermo Fisher Scientific
In short: as §1

T11 sequence (P23443 whole entry): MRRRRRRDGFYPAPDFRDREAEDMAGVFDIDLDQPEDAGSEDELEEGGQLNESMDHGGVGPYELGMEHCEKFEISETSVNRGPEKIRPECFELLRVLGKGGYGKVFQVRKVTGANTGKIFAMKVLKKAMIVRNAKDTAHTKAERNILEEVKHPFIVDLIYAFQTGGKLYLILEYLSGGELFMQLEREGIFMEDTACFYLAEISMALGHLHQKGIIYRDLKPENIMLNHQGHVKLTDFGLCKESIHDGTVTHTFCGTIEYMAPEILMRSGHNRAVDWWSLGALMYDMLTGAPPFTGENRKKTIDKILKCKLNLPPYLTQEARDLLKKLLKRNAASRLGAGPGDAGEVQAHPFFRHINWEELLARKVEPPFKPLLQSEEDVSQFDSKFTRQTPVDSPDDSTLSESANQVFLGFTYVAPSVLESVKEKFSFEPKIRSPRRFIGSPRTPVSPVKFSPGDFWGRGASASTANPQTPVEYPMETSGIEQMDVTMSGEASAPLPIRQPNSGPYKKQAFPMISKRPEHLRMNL
T12 sequence (Q96SB4 whole entry): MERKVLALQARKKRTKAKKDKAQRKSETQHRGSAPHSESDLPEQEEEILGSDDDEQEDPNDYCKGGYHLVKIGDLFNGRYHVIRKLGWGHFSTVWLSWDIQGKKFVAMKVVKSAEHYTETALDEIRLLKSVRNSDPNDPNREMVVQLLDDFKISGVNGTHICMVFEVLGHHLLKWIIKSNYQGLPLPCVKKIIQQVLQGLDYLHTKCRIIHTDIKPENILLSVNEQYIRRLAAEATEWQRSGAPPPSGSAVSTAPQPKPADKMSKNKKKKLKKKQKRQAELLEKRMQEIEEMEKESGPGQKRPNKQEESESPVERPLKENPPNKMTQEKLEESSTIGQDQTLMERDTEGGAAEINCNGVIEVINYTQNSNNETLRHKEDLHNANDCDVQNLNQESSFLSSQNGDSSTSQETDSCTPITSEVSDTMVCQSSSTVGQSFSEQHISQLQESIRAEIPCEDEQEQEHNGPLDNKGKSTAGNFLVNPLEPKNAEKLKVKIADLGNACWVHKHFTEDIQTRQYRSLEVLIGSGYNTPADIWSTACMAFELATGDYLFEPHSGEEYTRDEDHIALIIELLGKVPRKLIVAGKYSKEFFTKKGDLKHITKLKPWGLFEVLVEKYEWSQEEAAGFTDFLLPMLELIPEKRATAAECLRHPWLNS
T4 sequence (P22607 23-806 V555M): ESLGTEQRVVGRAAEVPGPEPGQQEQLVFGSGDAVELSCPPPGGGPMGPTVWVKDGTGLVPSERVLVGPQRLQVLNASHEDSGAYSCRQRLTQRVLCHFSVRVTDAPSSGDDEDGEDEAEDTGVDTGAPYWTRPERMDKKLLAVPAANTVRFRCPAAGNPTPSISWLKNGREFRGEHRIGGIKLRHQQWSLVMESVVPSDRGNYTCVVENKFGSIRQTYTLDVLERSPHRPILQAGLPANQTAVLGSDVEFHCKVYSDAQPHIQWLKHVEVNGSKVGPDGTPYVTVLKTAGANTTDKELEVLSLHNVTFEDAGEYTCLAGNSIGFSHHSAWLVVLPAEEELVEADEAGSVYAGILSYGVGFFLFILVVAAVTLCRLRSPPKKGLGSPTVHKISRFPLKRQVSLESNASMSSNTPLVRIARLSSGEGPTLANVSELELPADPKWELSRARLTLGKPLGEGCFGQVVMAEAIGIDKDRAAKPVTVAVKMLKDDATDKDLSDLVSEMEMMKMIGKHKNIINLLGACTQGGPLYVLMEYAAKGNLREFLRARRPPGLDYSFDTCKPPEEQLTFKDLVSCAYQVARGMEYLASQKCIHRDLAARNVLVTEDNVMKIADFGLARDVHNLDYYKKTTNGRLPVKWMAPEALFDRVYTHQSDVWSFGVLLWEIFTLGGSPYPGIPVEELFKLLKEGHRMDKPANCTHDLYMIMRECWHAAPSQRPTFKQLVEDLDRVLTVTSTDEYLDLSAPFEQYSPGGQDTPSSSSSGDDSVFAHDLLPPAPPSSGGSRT
T7 sequence (Q8IY84 whole entry): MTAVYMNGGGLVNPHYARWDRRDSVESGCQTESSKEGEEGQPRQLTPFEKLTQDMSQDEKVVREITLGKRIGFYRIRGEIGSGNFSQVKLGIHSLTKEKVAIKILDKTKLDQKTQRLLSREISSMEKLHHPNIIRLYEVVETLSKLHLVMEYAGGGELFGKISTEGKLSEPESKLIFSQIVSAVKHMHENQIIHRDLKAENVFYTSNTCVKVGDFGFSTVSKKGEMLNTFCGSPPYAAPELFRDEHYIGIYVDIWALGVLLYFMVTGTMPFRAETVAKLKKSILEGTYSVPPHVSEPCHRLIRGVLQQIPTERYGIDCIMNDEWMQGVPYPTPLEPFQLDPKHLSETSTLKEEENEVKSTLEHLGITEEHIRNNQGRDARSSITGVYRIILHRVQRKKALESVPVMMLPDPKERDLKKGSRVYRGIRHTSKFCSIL
T6 sequence (Q9Y4K4 whole entry): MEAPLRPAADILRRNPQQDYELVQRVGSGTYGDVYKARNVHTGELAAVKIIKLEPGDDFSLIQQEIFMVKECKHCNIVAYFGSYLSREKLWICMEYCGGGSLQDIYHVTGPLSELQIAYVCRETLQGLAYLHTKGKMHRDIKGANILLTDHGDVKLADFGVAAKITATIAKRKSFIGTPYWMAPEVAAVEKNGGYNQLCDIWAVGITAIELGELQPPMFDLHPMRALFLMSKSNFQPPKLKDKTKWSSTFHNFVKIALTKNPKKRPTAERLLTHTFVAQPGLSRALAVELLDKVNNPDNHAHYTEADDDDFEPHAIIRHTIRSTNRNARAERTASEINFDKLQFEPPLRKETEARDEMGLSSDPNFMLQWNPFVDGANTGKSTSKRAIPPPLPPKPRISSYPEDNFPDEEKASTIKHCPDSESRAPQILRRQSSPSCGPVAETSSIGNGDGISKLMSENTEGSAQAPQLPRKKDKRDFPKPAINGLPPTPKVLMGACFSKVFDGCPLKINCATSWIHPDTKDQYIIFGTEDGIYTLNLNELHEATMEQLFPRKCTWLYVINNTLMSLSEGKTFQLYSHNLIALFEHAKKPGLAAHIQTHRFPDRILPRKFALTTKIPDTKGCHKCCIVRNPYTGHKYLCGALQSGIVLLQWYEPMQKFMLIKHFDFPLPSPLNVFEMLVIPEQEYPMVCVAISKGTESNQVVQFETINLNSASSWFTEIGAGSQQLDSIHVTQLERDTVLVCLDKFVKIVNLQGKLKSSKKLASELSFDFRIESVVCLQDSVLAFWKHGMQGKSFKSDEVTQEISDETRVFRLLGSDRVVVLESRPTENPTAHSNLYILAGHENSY
T3 sequence (P50613 whole entry): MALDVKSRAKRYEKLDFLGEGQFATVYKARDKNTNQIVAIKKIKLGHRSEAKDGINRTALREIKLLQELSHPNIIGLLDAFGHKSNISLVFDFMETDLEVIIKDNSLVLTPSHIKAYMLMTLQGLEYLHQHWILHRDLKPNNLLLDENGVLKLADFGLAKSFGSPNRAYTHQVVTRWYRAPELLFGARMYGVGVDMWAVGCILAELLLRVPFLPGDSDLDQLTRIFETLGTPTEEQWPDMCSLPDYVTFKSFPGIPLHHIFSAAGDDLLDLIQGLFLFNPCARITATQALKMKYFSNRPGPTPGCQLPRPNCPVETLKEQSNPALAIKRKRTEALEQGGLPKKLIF
T3 sequence (P51946 whole entry partner): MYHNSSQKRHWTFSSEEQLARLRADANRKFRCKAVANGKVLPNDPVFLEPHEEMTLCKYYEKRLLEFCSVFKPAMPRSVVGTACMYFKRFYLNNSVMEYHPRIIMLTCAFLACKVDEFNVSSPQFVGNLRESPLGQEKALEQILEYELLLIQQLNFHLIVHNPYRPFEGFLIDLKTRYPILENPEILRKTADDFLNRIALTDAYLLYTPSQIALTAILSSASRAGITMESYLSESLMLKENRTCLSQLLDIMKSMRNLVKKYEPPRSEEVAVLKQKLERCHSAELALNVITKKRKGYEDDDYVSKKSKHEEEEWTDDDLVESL
T3 sequence (P51948 whole entry partner): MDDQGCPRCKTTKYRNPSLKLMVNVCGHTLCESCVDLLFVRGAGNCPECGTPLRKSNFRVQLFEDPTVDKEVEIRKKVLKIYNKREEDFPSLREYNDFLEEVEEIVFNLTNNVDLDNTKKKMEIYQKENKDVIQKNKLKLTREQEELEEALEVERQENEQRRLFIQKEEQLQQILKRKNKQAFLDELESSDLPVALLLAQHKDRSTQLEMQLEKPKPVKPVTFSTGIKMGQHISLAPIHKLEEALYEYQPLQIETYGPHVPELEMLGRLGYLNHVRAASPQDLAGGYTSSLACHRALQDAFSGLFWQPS
T5 sequence (P09769 whole entry): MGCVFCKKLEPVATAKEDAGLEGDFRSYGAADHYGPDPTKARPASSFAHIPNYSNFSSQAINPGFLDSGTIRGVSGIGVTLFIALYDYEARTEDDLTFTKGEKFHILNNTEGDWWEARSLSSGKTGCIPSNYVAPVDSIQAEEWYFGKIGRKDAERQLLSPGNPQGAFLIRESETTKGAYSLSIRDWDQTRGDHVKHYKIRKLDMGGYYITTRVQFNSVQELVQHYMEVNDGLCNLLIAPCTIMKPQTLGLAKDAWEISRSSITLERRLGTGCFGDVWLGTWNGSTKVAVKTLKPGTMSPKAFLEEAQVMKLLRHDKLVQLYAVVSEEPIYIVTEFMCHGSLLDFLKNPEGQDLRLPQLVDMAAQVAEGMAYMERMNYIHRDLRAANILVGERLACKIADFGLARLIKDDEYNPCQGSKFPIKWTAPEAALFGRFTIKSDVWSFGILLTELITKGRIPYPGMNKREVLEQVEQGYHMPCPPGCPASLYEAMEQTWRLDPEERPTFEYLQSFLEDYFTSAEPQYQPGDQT

Row | Structure (SMILES) | inhibition at 1 µM [1] [%] | inhibition at 10 µM [1] [%] | inhibition at 1 µM [2] [%] | inhibition at 10 µM [2] [%] | inhibition at 1 µM [3] [%] | inhibition at 10 µM [3] [%] | inhibition at 1 µM [4] [%] | inhibition at 10 µM [4] [%] | inhibition at 1 µM [5] [%] | inhibition at 10 µM [5] [%] | inhibition at 1 µM [6] [%] | inhibition at 10 µM [6] [%] | inhibition at 1 µM [7] [%] | inhibition at 10 µM [7] [%] | inhibition at 1 µM [8] [%] | inhibition at 10 µM [8] [%] | inhibition at 1 µM [9] [%] | inhibition at 10 µM [9] [%] | inhibition at 1 µM [10] [%] | inhibition at 10 µM [10] [%] | other results
1 | COc1ccc2cc3c(N)nn(C(=O)c4cccc(N(C)C)c4)c3nc2c1 [MW05, (3-Amino-7-methoxypyrazolo[3,4-b]quinolin-1-yl)-[3-(dimethylamino)phenyl]methanone] | 1 | -8 | 4 | -4 | 2 | 29 | -30 | -9 | 5 | 15 | 15 | 4 | 7 | 2 | 4 | 4 | 6 | -12 | 9 | 12 | inhibition at 1 µM [11]: 12%; inhibition at 10 µM [11]: 7%; inhibition at 1 µM [12]: 8%; inhibition at 10 µM [12]: 10%
2 | COc1ccc2c(c1OC)c(=O)n1c3ccc(O)cc3c3ccnc2c31 [MW01, 5-Hydroxy-10,11-dimethoxy-9H-benzo[c]indolo[3,2,1-ij][1,5]naphthyridin-9-one] | -9 | -3 | 8 | 18 | 3 | 4 | 5 | 11 | 10 | 26 | 39 | 68 | 7 | 13 | 23 | 49 | 9 | 8 | 15 | 34 | inhibition at 1 µM [11]: 19%; inhibition at 10 µM [11]: 15%; inhibition at 1 µM [12]: 12%; inhibition at 10 µM [12]: 15%
